Source: patent publication US12139488B2, “Pyrido[3,2-d]pyrimidine compounds uses thereof for treating a proliferative disease” (Universite de Montreal, priority 2021, dated 2024)
Like-named read-outs stand apart in the source and are kept apart here. One block for each molecule: values may come before it.

What was measured:
BRAF = BRAF (Homo sapiens (Human), UniProt P15056); test: BRAF kinase activity assay (ADP-Glo); type: biochemical
Protocol: (§1) Compound preparation: solid samples of each substances in 1 dram vials were suspended in DMSO (Fisher Scientific) at a stock concentration of 20 mM. Stocks were kept at −20° C. and protected from light.
(§2) In vitro enzymatic reactions were used for evaluating compounds intrinsic activity against BRAF, CRAF and ARAF. […] Separate reactions were performed with the MEK1 substrate and ATP as a blank control.
(§3) For compound treatment, 5 μL/well of test substance solution are placed in a 384-well proxyplate (Perkin Elmer) and mixed with 2× concentrated kinase reactions. The dilution series is selected so that nine concentrations cover a range from 100 nM to 0.01 nM. […] The final concentration of DMSO in the assay is set at 0.05%.
(§4) BRAF and CRAF kinase reactions were carried out for a total of 2 hours at 30° C. and then stopped by ½ dilution in ADP-Glo Reagent (cat #V9102; Promega; part V912C). Reactions were then incubated for 1h at room temperature before addition of one volume of Kinase Detection Reagent (cat #V9102; Promega; part V917A). Plates were then equilibrated at room temperature for 30 minutes before detection of luminescence on a Synergy Neo2 plate reader (Biotek). The effect of each compound dilution on BRAF and CRAF kinase activity was expressed as % inhibition and calculated as follows.
(§5) IC50 values were obtained by plotting the kinase inhibition values and fitting the dose-activity curves using a log(agonist) versus response-variable slope (four parameters) function using either GraphPadPrism (V7.0) or Dotmatics Screening Ultra platform.

CRAF = CRAF (Homo sapiens, UniProt P04049); test: CRAF kinase activity assay (ADP-Glo); type: biochemical
Protocol: as §1, §2, §3, §4, §5

[1] = test system: pERK in HCT-116 cells (KRAS G13D); test: Phospho-ERK inhibition (AlphaLISA SureFire Ultra p-ERK 1/2), HCT116; type: cell-based, human; conditions: for HCT116 pERK % Ymin (lowest value of the IC50 curve): Ymin above −20% = minimal or no paradoxical activation
Outline: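 p-ERK1/2 (Thr202/Tyr204) in lysates measured by AlphaLISA after 1 h compound exposure of overnight-plated cells (RPMI-1640, 5% FBS, 0.5% DMSO, ten concentrations, usually from 10 μM). Background from a trametinib control subtracted, inhibition normalised to vehicle, and IC50 fitted with a variable-slope four-parameter model.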

[2] = read-out: Kinase IC50 (nM) BRAF
[3] = read-out: Kinase IC50 (nM) CRAF
[4] = HCT116 cells, class symbol before the bracket
[5] = BRAF, read-out: Kinase IC50 (nM), BRAF biochemical kinase assay
[6] = CRAF, read-out: Kinase IC50 (nM), CRAF biochemical kinase assay
[7] = lowest % inhibition value of the IC50 curve, HCT116
[8] = Table 5, read-out: Kinase IC50 (nM) BRAF
[9] = Table 5, read-out: Kinase IC50 (nM) CRAF
[10] = lowest value of the curve, HCT116, Table 5

Chain of CRAF (P04049 whole entry, looked up): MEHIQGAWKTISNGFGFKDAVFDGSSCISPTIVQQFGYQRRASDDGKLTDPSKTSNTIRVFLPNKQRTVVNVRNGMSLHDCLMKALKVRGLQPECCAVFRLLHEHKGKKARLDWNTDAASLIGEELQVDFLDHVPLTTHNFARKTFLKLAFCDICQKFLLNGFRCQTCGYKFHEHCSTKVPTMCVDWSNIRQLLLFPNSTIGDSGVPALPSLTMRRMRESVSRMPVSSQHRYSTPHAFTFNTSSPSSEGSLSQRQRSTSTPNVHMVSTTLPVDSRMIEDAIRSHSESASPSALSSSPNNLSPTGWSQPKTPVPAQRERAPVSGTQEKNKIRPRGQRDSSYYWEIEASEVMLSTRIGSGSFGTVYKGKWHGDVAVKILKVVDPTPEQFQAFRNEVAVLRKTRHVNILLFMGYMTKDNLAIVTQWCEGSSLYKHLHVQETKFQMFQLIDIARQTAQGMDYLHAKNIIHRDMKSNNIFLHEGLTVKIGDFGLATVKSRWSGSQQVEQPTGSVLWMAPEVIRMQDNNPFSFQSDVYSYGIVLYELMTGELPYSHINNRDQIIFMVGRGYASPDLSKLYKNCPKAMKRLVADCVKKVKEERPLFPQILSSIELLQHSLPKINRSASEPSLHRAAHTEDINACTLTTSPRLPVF
Chain of BRAF (P15056 whole entry): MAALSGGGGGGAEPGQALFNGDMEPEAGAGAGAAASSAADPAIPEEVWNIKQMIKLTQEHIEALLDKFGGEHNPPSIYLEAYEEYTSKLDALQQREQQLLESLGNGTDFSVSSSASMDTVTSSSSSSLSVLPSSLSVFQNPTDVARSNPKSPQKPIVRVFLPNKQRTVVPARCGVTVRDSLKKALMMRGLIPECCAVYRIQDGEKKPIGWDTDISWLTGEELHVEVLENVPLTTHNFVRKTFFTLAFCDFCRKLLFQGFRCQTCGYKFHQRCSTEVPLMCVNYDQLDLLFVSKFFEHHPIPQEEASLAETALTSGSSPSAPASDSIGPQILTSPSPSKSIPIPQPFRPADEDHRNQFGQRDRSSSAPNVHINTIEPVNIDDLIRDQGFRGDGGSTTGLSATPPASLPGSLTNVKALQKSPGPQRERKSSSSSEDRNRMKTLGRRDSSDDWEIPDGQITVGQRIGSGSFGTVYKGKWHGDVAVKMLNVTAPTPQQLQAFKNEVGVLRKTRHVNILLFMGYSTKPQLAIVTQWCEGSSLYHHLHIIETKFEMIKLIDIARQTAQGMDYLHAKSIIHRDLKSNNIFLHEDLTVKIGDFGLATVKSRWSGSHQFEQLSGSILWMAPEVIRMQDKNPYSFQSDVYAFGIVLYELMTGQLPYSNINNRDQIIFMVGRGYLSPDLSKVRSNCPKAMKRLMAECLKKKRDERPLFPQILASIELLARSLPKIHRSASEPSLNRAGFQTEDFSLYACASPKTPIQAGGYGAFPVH

SMILES: CC(C)NCc1cccc2c1ncn2-c1ccc2ncnc(Nc3c(F)ccc(NS(=O)(=O)c4ccccc4Cl)c3F)c2n1 [Ex 222]
IC50 (BRAF; [2]): 1 to 10 nM
IC50 (CRAF; [3]): 10 to 50 nM
HCT116 pERK Ymin % ([1]; HCT116 cells, Ymin in brackets): −11%
IC50 [1, 4]: 1000 to 10000 nM

SMILES: CCC1(O)CCN(c2nccc3c2ncn3-c2ccc3ncnc(Nc4c(F)ccc(NS(=O)(=O)c5cccc(Cl)c5Cl)c4F)c3n2)CC1 [Example 691]
IC50 (BRAF; [5]): 1 to 10 nM
IC50 (CRAF; [6]): 10 to 50 nM
IC50 ([1]; HCT116 cells): < 500 nM
HCT116 pERK % Ymin (lowest value of the IC50 curve) ([1]; HCT116 cells): 6%

SMILES: O=S(=O)(Nc1ccc(F)c(Nc2ncnc3ccc(-n4cnc5c(N6CCC(O)(CCO)CC6)cccc54)nc23)c1F)c1cccc(Cl)c1Cl [Example 671]
IC50 (BRAF; [5]): < 1 nM
IC50 (CRAF; [6]): < 10 nM
IC50 ([1]; HCT116 cells): < 500 nM
HCT116 pERK % Ymin (lowest value of the IC50 curve) ([1]; HCT116 cells): −5%

SMILES: Cc1c(F)cccc1S(=O)(=O)Nc1ccc(F)c(Nc2ncnc3ccc(-n4ncc5c4CN(C)CC5)nc23)c1F [Example 664]
IC50 (BRAF; [5]): 1 to 10 nM
IC50 (CRAF; [6]): > 50 nM
IC50 ([1]; HCT116 cells): 1000 to 10000 nM
HCT116 pERK % Ymin (lowest value of the IC50 curve) ([1]; HCT116 cells): −15%

SMILES: CN(C)c1nnc(-c2nn(-c3ccc4ncnc(Nc5c(F)ccc(NS(=O)(=O)c6cccc(Cl)c6Cl)c5F)c4n3)c3ccccc23)o1 [Example 209]
IC50 (BRAF; [2]): 1 to 10 nM
IC50 (CRAF; [3]): 10 to 50 nM
HCT116 pERK Ymin % ([1]; HCT116 cells, Ymin in brackets): −6%
IC50 [1, 4]: 10000 to 30000 nM

SMILES: Nc1nc(-c2ccc3ncnc(Nc4c(F)ccc(NS(=O)(=O)c5ccccc5Cl)c4F)c3n2)cs1 [Example 94]
IC50 (BRAF; [2]): > 10 nM
IC50 (CRAF; [3]): > 50 nM
HCT116 pERK Ymin % ([1]; HCT116 cells, Ymin in brackets): −5%
IC50 [1, 4]: 1000 to 10000 nM

SMILES: O=S(=O)(Nc1ccc(F)c(Nc2ncnc3ccc(-n4cnc5ccccc54)nc23)c1F)c1ccc(C(F)(F)F)cc1Cl [Example 653]
IC50 (BRAF; [2]): > 10 nM
IC50 (CRAF; [3]): > 50 nM
IC50 ([1]; HCT116 cells, 1 h treatment): 1000 to 10000 nM
HCT116 pERK Ymin % [1, 7]: −13%

SMILES: O=S(=O)(Nc1ccc(F)c(Nc2ncnc3ccc(-n4cnc5c(C6(CO)CC6)cccc54)nc23)c1F)c1cccc(Cl)c1Cl [Example 612]
IC50 (BRAF; [5]): 1 to 10 nM
IC50 (CRAF; [6]): < 10 nM
IC50 ([1]; HCT116 cells): < 500 nM
HCT116 pERK % Ymin (lowest value of the IC50 curve) ([1]; HCT116 cells): −10%

SMILES: CN(C)C(=O)c1cn(-c2ccc3ncnc(Nc4c(F)ccc(NS(=O)(=O)c5ccccc5Cl)c4F)c3n2)c2ccccc12 [Ex 87]
IC50 (BRAF; [2]): < 1 nM
IC50 (CRAF; [3]): 10 to 50 nM
HCT116 pERK Ymin % ([1]; HCT116 cells, Ymin in brackets): −4.4%
IC50 [1, 4]: < 500 nM

SMILES: O=S(=O)(Nc1ccc(F)c(Nc2ncnc3ccc(-n4cnc5c(CN6CC(O)C6)cccc54)nc23)c1F)c1ccccc1Cl [Ex 225]
IC50 (BRAF; [2]): 1 to 10 nM
IC50 (CRAF; [3]): 10 to 50 nM
HCT116 pERK Ymin % ([1]; HCT116 cells, Ymin in brackets): −8%
IC50 [1, 4]: 1000 to 10000 nM

SMILES: O=S(=O)(Nc1ccc(F)c(Nc2ncnc3ccc(-n4nc(-c5nnc(O)o5)c5ccccc54)nc23)c1F)c1cccc(Cl)c1Cl [Example 208]
IC50 (BRAF; [2]): 1 to 10 nM
IC50 (CRAF; [3]): < 10 nM
HCT116 pERK Ymin % ([1]; HCT116 cells, Ymin in brackets): −4%
IC50 [1, 4]: 1000 to 10000 nM

SMILES: O=C(Nc1cccc2c1ncn2-c1ccc2ncnc(Nc3c(F)ccc(NS(=O)(=O)c4ccccc4Cl)c3F)c2n1)N1CCOCC1 [Example 149]
IC50 (BRAF; [2]): 1 to 10 nM
IC50 (CRAF; [3]): 10 to 50 nM
HCT116 pERK Ymin % ([1]; HCT116 cells, Ymin in brackets): 8.5%
IC50 [1, 4]: 500 to 1000 nM

SMILES: O=S(=O)(Nc1ccc(F)c(Nc2ncnc3ccc(-n4cnc5c(CN6CCCC6)cccc54)nc23)c1F)c1ccccc1Cl [Ex 219]
IC50 (BRAF; [2]): 1 to 10 nM
IC50 (CRAF; [3]): 10 to 50 nM
HCT116 pERK Ymin % ([1]; HCT116 cells, Ymin in brackets): 0%
IC50 [1, 4]: 1000 to 10000 nM

SMILES: Cc1scc(S(=O)(=O)Nc2ccc(F)c(Nc3ncnc4ccc(-n5cnc6ccccc65)nc34)c2F)c1C [Example 320]
IC50 (BRAF; [2]): 1 to 10 nM
IC50 (CRAF; [3]): > 50 nM
IC50 ([1]; HCT116 cells, 1 h treatment): 1000 to 10000 nM
HCT116 pERK Ymin % [1, 7]: −5%

SMILES: O=S(=O)(Nc1cc(F)c(F)c(Nc2ncnc3ccc(-n4nnc5ccccc54)nc23)c1F)c1cccc(Cl)c1Cl [Example 649]
IC50 (BRAF; [8]): 1 to 10 nM
IC50 (CRAF; [9]): < 10 nM
IC50 ([1]; HCT116 cells, Table 5): < 500 nM
HCT116 pERK Ymin % [1, 10]: 3%

SMILES: O=S(=O)(Nc1cccc(Nc2ncnc3ccc(-n4cnc5ccccc54)nc23)c1F)c1cccc(Cl)c1Cl [Example 646]
IC50 (BRAF; [8]): 1 to 10 nM
IC50 (CRAF; [9]): 10 to 50 nM
IC50 ([1]; HCT116 cells, Table 5): < 500 nM
HCT116 pERK Ymin % [1, 10]: −3%

SMILES: N#CC1(c2cccc3c2nnn3-c2ccc3ncnc(Nc4c(F)ccc(NS(=O)(=O)c5cccc(Cl)c5Cl)c4F)c3n2)CC1 [Example 610]
IC50 (BRAF; [5]): 1 to 10 nM
IC50 (CRAF; [6]): < 10 nM
IC50 ([1]; HCT116 cells): < 500 nM
HCT116 pERK % Ymin (lowest value of the IC50 curve) ([1]; HCT116 cells): −2%

SMILES: O=S(=O)(Nc1ccc(F)c(Nc2ncnc3ccc(-n4cnc5c(N6CCNCC6)cccc54)nc23)c1F)c1cccc(Cl)c1Cl [Example 634]
IC50 (BRAF; [5]): < 1 nM
IC50 (CRAF; [6]): < 10 nM
IC50 ([1]; HCT116 cells): < 500 nM
HCT116 pERK % Ymin (lowest value of the IC50 curve) ([1]; HCT116 cells): −2%

More lines, main results first:

IC50 (BRAF; [2]): 1 to 10 nM
IC50 (CRAF; [3]): 10 to 50 nM
IC50 [1, 4]: 500 to 1000 nM
SMILES: CN(C)Cc1cccc2c1ncn2-c1ccc2ncnc(Nc3c(F)ccc(NS(=O)(=O)c4ccccc4Cl)c3F)c2n1 [Ex 216]
HCT116 pERK Ymin % ([1]; HCT116 cells, Ymin in brackets): −8.8%

IC50 (BRAF; [2]): 1 to 10 nM
IC50 (CRAF; [3]): > 50 nM
IC50 [1, 4]: 1000 to 10000 nM
SMILES: CC(=O)c1cn(-c2ccc3ncnc(Nc4c(F)ccc(NS(=O)(=O)c5ccccc5Cl)c4F)c3n2)c2ccccc12 [Ex 214]
HCT116 pERK Ymin % ([1]; HCT116 cells, Ymin in brackets): −12%

IC50 (BRAF; [2]): 1 to 10 nM
IC50 (CRAF; [3]): < 10 nM
IC50 ([1]; HCT116 cells, 1 h treatment): < 500 nM
SMILES: Cc1c(Cl)csc1S(=O)(=O)Nc1ccc(F)c(Nc2ncnc3ccc(-n4cnc5ccccc54)nc23)c1F [Example 315]
HCT116 pERK Ymin % [1, 7]: −12%

IC50 (BRAF; [2]): 1 to 10 nM
IC50 (CRAF; [3]): 10 to 50 nM
IC50 [1, 4]: 1000 to 10000 nM
SMILES: CNCc1cccc2c1ncn2-c1ccc2ncnc(Nc3c(F)ccc(NS(=O)(=O)c4ccccc4Cl)c3F)c2n1 [Ex 215]
HCT116 pERK Ymin % ([1]; HCT116 cells, Ymin in brackets): −9%

IC50 (BRAF; [2]): 1 to 10 nM
IC50 (CRAF; [3]): < 10 nM
IC50 [1, 4]: 500 to 1000 nM
SMILES: Cc1c(Cl)cccc1S(=O)(=O)Nc1ccc(F)c(Nc2ncnc3ccc(-n4nnc5c(O)cccc54)nc23)c1F [Example 117]
HCT116 pERK Ymin % ([1]; HCT116 cells, Ymin in brackets): −12%

IC50 (BRAF; [2]): 1 to 10 nM
IC50 (CRAF; [3]): 10 to 50 nM
IC50 [1, 4]: 1000 to 10000 nM
SMILES: CNC(=O)c1cn(-c2ccc3ncnc(Nc4c(F)ccc(NS(=O)(=O)c5ccccc5Cl)c4F)c3n2)c2ccccc12 [Ex 86]
HCT116 pERK Ymin % ([1]; HCT116 cells, Ymin in brackets): −10%

IC50 (BRAF; [5]): < 1 nM
IC50 (CRAF; [6]): < 10 nM
IC50 ([1]; HCT116 cells): < 500 nM
HCT116 pERK % Ymin (lowest value of the IC50 curve) ([1]; HCT116 cells): −14%
SMILES: Cc1cn(-c2ccc3ncnc(Nc4c(F)ccc(NS(=O)(=O)c5cccc(Cl)c5Cl)c4F)c3n2)nn1 [Example 684]

IC50 (BRAF; [2]): 1 to 10 nM
IC50 (CRAF; [3]): < 10 nM
IC50 [1, 4]: 1000 to 10000 nM
SMILES: NC(=O)Cc1cn(-c2ccc3ncnc(Nc4c(F)ccc(NS(=O)(=O)c5ccccc5Cl)c4F)c3n2)c2ccccc12 [Ex 90]
HCT116 pERK Ymin % ([1]; HCT116 cells, Ymin in brackets): −1%

IC50 (BRAF; [5]): > 10 nM
IC50 (CRAF; [6]): 10 to 50 nM
IC50 ([1]; HCT116 cells): < 500 nM
HCT116 pERK % Ymin (lowest value of the IC50 curve) ([1]; HCT116 cells): 0%
SMILES: O=S(=O)(Nc1ccc(F)c(Nc2ncnc3ccc(-c4cnc(N5CCOCC5)s4)nc23)c1F)c1cccc(Cl)c1Cl [Example 631]
